Assays:
[1] = target: α-acetylcholinesterase (AChE) (Homo sapiens, UniProt P22303); assay: biochemical; type: biochemical; settings: phosphate buffer pH 7.0, 37 °C, triplicate; for IC50: read-out: Inhibition of AChE IC50; for all read-outs here: key: '-' as 'no action'
Experimental: α-Acetylcholinesterase inhibitory activity was assayed using 50 mM phosphate buffer (pH 7.0). […] 10 μL of sample solution and 10 μL of α-acetylcholinesterase solution (2 units mL^−1, in the phosphate buffer at pH 7.0) were added to 960 μL of phosphate buffer and incubated at 37 °C for 30 min, and then 20 μL of substrate were added to initiate the enzyme reaction. The enzyme reaction was carried out at 37 °C for 30 min. Product was monitored spectrophotometrically by measuring the absorbance (λ = 400 nm). Huperzine A was used as reference standard inhibitor for comparison. Dose-response curves were obtained by performing assays in the presence of increasing concentrations of inhibitors. IC50 value was determined by interpolation of the dose-response curves. For all tests, the inhibition assays were performed in triplicate.

[2] = tested on: human nasopharyngeal carcinoma cells (KB); settings: MTT
Experimental: (§1) IC50 of these compounds were determined by the MTT assay (see Table 2).
(§2) The cytotoxic activities were determined using MCF-7, A549, Hela, KB human tumor cells by the MTT colorimetric method. […] Subsequently 20 μL of MTT solution (5 mg/mL) were added to each well and mixed, the cells were then incubated for an additional 4 h. Culture supernatant were removed, 150 μL of DMSO were added to each well to fully dissolve the MTT—formazan crystals. Cell growth inhibition was determined by measuring the absorbance (Abs) at λ = 570 nm using a microplate reader and calculated according to the following equation: Growth inhibition = (1 − OD of treated cells/OD of control cells) × 100% (1)
(§3) The half maximal inhibitory concentrations (IC50) were obtained from linear regression analysis of the concentration-response curves plotted for each tested compound (Bliss’s software). Results were expressed as the mean value of triplicate data points.

lung cancer cells (A549) = settings: MTT
Experimental: as §1, §2, §3

[3] = tested on: cervix carcinoma cells (Hela); assay: in vitro; settings: Hela cells, MTT
Experimental: as §1, §2, §3

[4] = tested on: human breast cancer cells (MCF-7); assay: in vitro; settings: MCF-7 cells, MTT
Experimental: as §1, §2, §3

in vitro = settings: human
Experimental: as §1, §2, §3

α-acetylcholinesterase (AChE), sequence (P22303 32-614): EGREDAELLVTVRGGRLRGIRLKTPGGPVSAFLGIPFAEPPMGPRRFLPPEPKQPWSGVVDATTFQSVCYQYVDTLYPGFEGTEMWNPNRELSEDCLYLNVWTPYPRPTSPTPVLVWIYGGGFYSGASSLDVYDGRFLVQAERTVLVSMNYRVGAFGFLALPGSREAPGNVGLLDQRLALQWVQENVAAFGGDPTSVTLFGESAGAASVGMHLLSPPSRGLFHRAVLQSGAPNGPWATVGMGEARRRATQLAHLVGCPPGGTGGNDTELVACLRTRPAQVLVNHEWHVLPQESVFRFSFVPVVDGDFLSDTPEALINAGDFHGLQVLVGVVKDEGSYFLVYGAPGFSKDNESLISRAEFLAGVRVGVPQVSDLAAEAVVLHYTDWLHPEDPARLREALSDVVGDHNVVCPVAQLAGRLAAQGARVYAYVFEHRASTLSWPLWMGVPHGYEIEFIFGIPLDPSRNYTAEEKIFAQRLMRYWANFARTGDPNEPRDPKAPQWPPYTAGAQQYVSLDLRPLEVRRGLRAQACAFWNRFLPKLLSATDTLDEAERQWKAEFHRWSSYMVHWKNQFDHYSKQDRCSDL

Row | Compound | IC50 [1] [nM] | Cytotoxicity IC50 KB [2] | cytotoxic / inhibitory activity against KB (in words) [2] | Cytotoxicity IC50 A549 (lung cancer cells (A549)) | cytotoxic / inhibitory activity against A549 (in words) (lung cancer cells (A549)) | Cytotoxicity IC50 Hela [3] | cytotoxic / inhibitory activity against Hela (in words) [3] | Cytotoxicity IC50 MCF-7 [4] | cytotoxic / inhibitory activity against MCF-7 (in words) [4] | Inhibition of AChE IC50 [1] | IC50 (in vitro; Cytotoxicity IC50 Hela, Hela cells, MTT) [nM] | IC50 (in vitro; Cytotoxicity IC50 MCF-7, MCF-7 cells, MTT) [nM] | IC50 (in vitro; Cytotoxicity IC50 Hela) [nM] | IC50 (in vitro; Cytotoxicity IC50 MCF-7) [nM]
1 | COC1=CC(=O)c2c(O)c(C)c3c(c2C1=O)O[C@@H](C)C3 [Compound 2, anhydrojavanicin] | 2010 | - | no inhibitory activities | - | no inhibitory activities | - | no inhibitory activities | - | no inhibitory activities |  |  |  |  | 
2 | COc1cc(OC)c2c(c1O)C(=O)c1sc(C(C)O)cc1C2=O (centres unmarked) [Compound 1, 8-hydroxy-2-[1-hydroxyethyl]-5,7-dimethoxynaphtho[2,3-b] thiophene-4,9-dione] |  | - | no inhibitory activities | - | no inhibitory activities | - | no inhibitory activities | - | no inhibitory activities | - |  |  |  | 
3 | CC(=O)O[C@H]1C[C@H]2[C@H]3[C@H]([C@@H](O)C[C@]2(C)[C@H]1[C@H](C)/C=C/[C@H](C)C(C)C)[C@@]1(C)CC[C@H](O)C[C@@H]1C(=O)[C@@H]3O [Compound 9, NGA0187] | 1890 | - | no inhibitory activities | - | no inhibitory activities | - | no inhibitory activities | - | no inhibitory activities |  |  |  |  | 
4 | COc1cc(OC)c2c(c1O)C(=O)C(CC(C)=O)=C(C)C2=O [Compound 4, 8-O-methyljavanicin] |  | - | no inhibitory activities | - | no inhibitory activities | - | no inhibitory activities | - | no inhibitory activities | - |  |  |  | 
5 | CCc1c(OC)cc2c(c1O)C(=O)C(OC)=CC2=O [Compound 6, 6-ethyl-5-hydroxy-3,7-dimethoxynaphthoquinone] |  | - | no inhibitory activities | - | no inhibitory activities | - | no inhibitory activities | - | no inhibitory activities | - |  |  |  | 
6 | CCc1c(OC)cc2c(c1O)C(=O)C[C@H](O)[C@H]2O [Compound 5, botryosphaerone D] |  | - | no inhibitory activities | - | no inhibitory activities | - | no inhibitory activities | - | no inhibitory activities | - |  |  |  | 
7 | CC(C)[C@@H](C)/C=C/[C@@H](C)[C@H]1CC[C@@]2(O)C3=CC(=O)[C@@]4(O)C[C@@H](O)CC[C@]4(C)[C@H]3CC[C@]12C [Compound 8, 3β,5α,14α-trihydroxy-(22E,24R)-ergosta-7,22-dien-6-one] |  |  | weak inhibitory activities |  | weak inhibitory activities |  | weak inhibitory activities |  | weak inhibitory activities | - | 25400 | 24400 |  | 
8 | COc1cccc2c1C(=O)c1c(O)c3c(c(O)c1C2=O)C[C@@](O)(C(=O)CO)C[C@@H]3O[C@H]1C[C@H](N)[C@@H](O)[C@H](C)O1 [Epirubicin, reference compound] |  |  |  |  |  |  |  |  |  |  |  |  | 1070 | 420
9 | CC(C)[C@@H](C)/C=C/[C@@H](C)[C@H]1CC[C@H]2C3=CC(=O)[C@@]4(O)C[C@@H](O)CC[C@]4(C)[C@H]3CC[C@]12C [Compound 7, 3β,5α-dihydroxy-(22E,24R)-ergosta-7,22-dien-6-one] |  |  | strong or moderate cytotoxic activies |  | strong or moderate cytotoxic activies |  | strong or moderate cytotoxic activies |  | strong or moderate cytotoxic activies | - |  |  |  | 
10 | COc1cc(OC)c2c(c1O)C(=O)c1cc(C)ncc1C2=O [Compound 3, 8-O-methylbostrycoidin] | 6710 | - | no inhibitory activities | - | no inhibitory activities | - | no inhibitory activities | - | no inhibitory activities |  |  |  |  | 

From paper PMC3736441 (Marine Drugs, 2013)
